Where two headings read alike, the source gives them in different places.
System: Staphylococcus aureus bacteria
Details: 1957 mg/L solution, chlorine-demand-free water pH 7, ambient temperature

CC1(C)C(=O)N(CN(CCO)CCO)C(=O)N1Cl [chlorinated heterocyclic amine diol, 1-chloro-3-[1-bis(N,N-2-hydroxyethyl)aminomethyl]-5,5-dimethyl-1,3-imidazolidin-2,4-dione]
inactivation of Staphylococcus aureus (contact time 30 min): > 5 logs
inactivation of Staphylococcus aureus (contact time 60 min): > 5 logs
